# According to patent publication US6784208B2, “Method for preventing and treating visceral pain and gastrointestinal disorders” (Warner-Lambert Company, priority 2001, dated 2004):
# Where two headings read alike, the source gives them in different places.
# Assays:
# [1] = system: TNBS-induced chronic visceral allodynia; assay: TNBS-induced chronic visceral allodynia in rats (colonic distension); type: in vivo, rat; details: for Inhibition at 1 h (%) of the TNBS-induced decrease in the pain threshold: 1 h before colonic distension, rats
# Method: In this experimental model of colonic distension in awake rats, previous injection of TNBS into the proximal colon had lowered the visceral pain threshold.
# Male Sprague-Dawley rats weighing 340-400 g are used. The animals are housed 3 per cage in a regulated environment (20±1° C., 50±5% humidity, with light 8:00 am to 8:00 pm). At day 0, under anesthesia (ketamine 80 mg/kg ip.; acepromazine 12 mg/kg ip.), the injection of TNBS (50 mg/kg in ethanol 30%), or saline (1.5 ml/kg) for control rats, is performed into the proximal colon wall (1 cm from the cecum). After the surgery, animals are individually housed in polypropylene cages and kept in a regulated environment (20±1° C., 50±5% humidity, with light 8:00 a.m. to 8:00 p.m.) during 7 days. At day 7 after TNBS administration, a balloon (5-6 cm length) is inserted by anus, and kept in position (tip of balloon 5 cm from the anus) by taping the catheter to the base of the tail. Oral administration of gabapentin or the compound of formula Ia is performed 1 h before the colonic distension cycle: the balloon is progressively inflated by steps of 5 mm Hg (0.667 kPa), from 0 to 75 mm Hg, each step of inflation lasting 30 s. Each cycle of colonic distension is controlled by a standard barostat. The threshold (mm Hg) corresponds to the pressure which produced the first abdominal contraction, and the cycle of distension is then discontinued. The colonic threshold is determined after performance of four cycles of distension on the same animal.
# Data is analyzed by comparing test compound-treated groups with a TNBS only-treated group and the control group. Mean and SEM are calculated for each group. The antiallodynic activity of each oral dose of the test compound is calculated as follows: [formula]
# where A=mean threshold of the test compound-treated group,
# T=mean threshold of the TNBS only-treated group,
# C=mean threshold of the control group.
# The results measured in the test compound-treated groups are expressed in % inhibition of the TNBS-induced decrease in the pain threshold. Statistical significance between each group was determined by using a one-way ANOVA followed by Student's unpaired t-test; differences were considered statistically significant at p<0.05.
# [2] = system: TNBS-induced chronic visceral allodynia; details: cited from earlier work
# [3] = system: LPS-induced rectal hypersensitivity; assay: LPS-induced rectal hypersensitivity in rats (rectal distension, abdominal contractions); type: in vivo, rat; details: for inhibition of the number of abdominal contractions induced by rectal distension: distension at 0.4 ml, LPS treated rats
# Method: Animals are surgically prepared for electromyography: rats are anaesthetized by intraperitoneal injection of acepromazine (0.6 mg/kg) and ketamine (120 mg/kg). […] Electrodes are exteriorized on the back of the neck and protected by a glass tube attached to the skin. Animals are individually housed in polypropylene cages and kept in a temperature-controlled room (21° C.). Food (UAR pellets, Epinay, France) and water are provided ad libitum.
# Electromyographic recordings begin five days after surgery. The electrical activity of abdominal striated muscles is recorded with an electroencephalograph machine (Mini VIII Alvar, Paris, France) using a short time constant (0.03 s) to remove low-frequency signals (<3 Hz) and a paper speed of 3.6 cm/min. Spike bursts are recorded as an index of abdominal contractions.
# Distension procedure: Rats are placed in plastic tunnels (6 cm diameter×25 cm long), where they cannot move, escape, or turn around, in order to prevent damage to the balloon. Animals are accustomed to this procedure for four days before rectal distension in order to minimize stress reactions during experiments. The balloon used for distension is an arterial embolectomy catheter (Fogarty, Edwards Laboratories Inc.). Rectal distension is performed by insertion of the balloon (2 mm diameter×2 cm long) into the rectum, at 1 cm from the anus, and catheter is fixed at the base of the tail. It is inflated progressively with tepid water by steps of 0.4 ml, from 0 to 1.2 ml, each step of inflation lasting 5 min. To detect possible leakage, the volume of water introduced in the balloon is checked by complete removal with a syringe at the end of the distension period.
# Experimental protocol: Rats are injected i.p. with LPS (1 mg/kg (Escherichia coli, serotype O111:B4) Sigma-Aldrich chemical Co., St Louis, Mo.) or its vehicle, and rectal distension with concomitant electromyographic recording of abdominal contractions is performed 9 and 12 h after this administration. To determine the antinociceptive properties of gabapentin and the compound of formula Ia in hyperalgesia conditions, gabapentin (10 and 30 mg/kg) and the compound of formula Ia (0.01, 0.03 and 0.1 mg/kg) or the vehicle (NaCl 0.9% 0.3 ml/rat) are administered per os 1 h before rectal distension but preceded (12 h) by injection of LPS (1 mg/kg i.p.).
# Drugs: All compounds were dissolved in sterile NaCl (0.9% isotonic saline) immediately before use.
# Statistics: Statistical analysis of the number of abdominal contractions occurring during each period of rectal distension is performed by one-way ANOVA followed by parametric Student's unpaired t test.
compound,measurement,setting,value
1-(aminomethyl)cyclohexane acetic acid [gabapentin],Inhibition at 1 h (%) of the TNBS-induced decrease in the pain threshold,[1]; 100 mg/kg p.o.,14.7 ± 5.1%
same,Inhibition at 1 h (%) of the TNBS-induced decrease in the pain threshold,[1]; 300 mg/kg p.o.,48.6 ± 13.3%
same,Inhibition at 1 h (%) of the TNBS-induced decrease in the pain threshold,[1]; 500 mg/kg p.o.,64.9 ± 10.5%
same,Inhibition at 1 h (%) of the TNBS-induced decrease in the pain threshold,[1]; 1000 mg/kg p.o.,75.2 ± 6.1%
same,"median effective dose (ED50), antiallodynic activity","[1]; p.o., TNBS-treated rats",321 mg/kg
same,effect on TNBS-induced colonic hypersensitivity,[2]; model of chronic allodynia (Diop et al. 1998),suppress
same,effect on colonic threshold,"[2]; s.c. route, control conditions",not to modify the colonic threshold
same,inhibition of the number of abdominal contractions induced by rectal distension,"[3]; 10 mg/kg p.o., not significant",24.9%
same,inhibition of the number of abdominal contractions induced by rectal distension,[3]; 30 mg/kg p.o.,85.3%
"NC[C@]1(CC(=O)O)C[C@H]2CC[C@H]2C1 [compound of formula Ia, (1α,3α,5α)-3-aminomethyl-bicyclo[3.2.0]heptane-3-acetic acid]",Inhibition at 1 h (%) of the TNBS-induced decrease in the pain threshold,[1]; 3 mg/kg p.o.,21.7 ± 3.0%
same,Inhibition at 1 h (%) of the TNBS-induced decrease in the pain threshold,[1]; 10 mg/kg p.o.,34.2 ± 5.7%
same,Inhibition at 1 h (%) of the TNBS-induced decrease in the pain threshold,[1]; 30 mg/kg p.o.,58.8 ± 6.2%
same,Inhibition at 1 h (%) of the TNBS-induced decrease in the pain threshold,[1]; 60 mg/kg p.o.,90.4 ± 9.8%
same,ED50,"[1]; Rattus norvegicus, po, TNBS-treated rats, read-out: median effective dose (ED50), antiallodynic activity",14.4 mg/kg
same,effect on the number of abdominal contractions induced by rectal distension,"[3]; 0.01, 0.03 and 0.1 mg/kg po, distension at 0.4 ml after LPS treatment (FIG. 1)",inhibits in a dose-related manner
same,fold more potent than gabapentin,"[3]; LPS-induced rectal hypersensitivity model, p.o.",about 500 fold
same,ED50,"[3]; Rattus norvegicus, po, distension at 0.4 ml after LPS treatment, read-out: ED50, inhibition of abdominal contractions induced by rectal distension",0.037 mg/kg
CN1CC[C@]23c4c5ccc(O)c4O[C@H]2[C@@H](O)C=C[C@H]3[C@H]1C5 [morphine],effect on colonic threshold,"[2]; s.c., both TNBS-treated animals and controls",increased the colonic threshold
